Test results reported in PMC8429728, “TNK1 is a ubiquitin-binding and 14-3-3-regulated kinase that can be targeted to block tumor growth” (Nature Communications, 2021).
Read-outs that look alike come from different tables or passages of the source.

What was measured:
Assay in all cases: biochemical
Set-up in all cases: Reaction Biology 371-kinase panel at Km ATP, per cent enzyme activity relative to DMSO, single dose in duplicate
TAOK2/TAO1 = TAOK2/TAO1 (Homo sapiens, UniProt Q9UL54); settings: duplicate measurements, Km ATP
Method in brief: (§1)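 First, kinases from a 371-member panel were exposed in vitro to 300 nM inhibitor. Next, % enzyme activity versus DMSO was computed. Finally, IC50s were derived by sigmoidal dose-response fitting with variable slope and a zero bottom constraint.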

PKD2/PRKD2 = PKD2/PRKD2 (Homo sapiens, UniProt Q9BZL6); settings: duplicate measurements, Km ATP
Chain of PKD2/PRKD2 (Q9BZL6 whole entry): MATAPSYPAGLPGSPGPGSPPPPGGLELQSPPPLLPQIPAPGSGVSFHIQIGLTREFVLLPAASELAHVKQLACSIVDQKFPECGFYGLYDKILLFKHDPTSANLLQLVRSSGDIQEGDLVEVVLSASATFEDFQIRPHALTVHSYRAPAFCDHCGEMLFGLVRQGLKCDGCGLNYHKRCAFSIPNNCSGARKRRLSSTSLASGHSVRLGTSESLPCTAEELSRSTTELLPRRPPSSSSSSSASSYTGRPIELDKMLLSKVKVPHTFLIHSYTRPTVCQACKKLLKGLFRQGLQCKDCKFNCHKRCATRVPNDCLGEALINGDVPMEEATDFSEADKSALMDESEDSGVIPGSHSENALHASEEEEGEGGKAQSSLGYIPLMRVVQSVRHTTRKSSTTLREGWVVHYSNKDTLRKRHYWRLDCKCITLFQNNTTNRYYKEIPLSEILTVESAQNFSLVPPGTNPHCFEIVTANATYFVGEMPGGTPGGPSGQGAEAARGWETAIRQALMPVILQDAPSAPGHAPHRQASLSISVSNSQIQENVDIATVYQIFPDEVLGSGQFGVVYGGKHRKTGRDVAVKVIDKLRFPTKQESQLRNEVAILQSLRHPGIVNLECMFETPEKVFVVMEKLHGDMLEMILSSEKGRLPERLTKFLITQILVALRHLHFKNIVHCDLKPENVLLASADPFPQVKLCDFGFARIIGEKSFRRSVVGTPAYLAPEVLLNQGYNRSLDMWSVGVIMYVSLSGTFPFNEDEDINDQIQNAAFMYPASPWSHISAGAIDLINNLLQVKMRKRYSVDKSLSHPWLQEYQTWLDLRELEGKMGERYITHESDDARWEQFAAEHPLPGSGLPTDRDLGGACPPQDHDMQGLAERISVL
Method in brief: as §1

CAMK1d = CAMK1d (Homo sapiens, UniProt Q8IU85); settings: duplicate measurements, Km ATP
Method in brief: as §1

STK33 = STK33 (Homo sapiens, UniProt Q9BYT3); settings: duplicate measurements, Km ATP
Method in brief: as §1

EPHA4 = EPHA4 (Homo sapiens, UniProt P54764); settings: duplicate measurements, Km ATP
Chain of EPHA4 (P54764 whole entry): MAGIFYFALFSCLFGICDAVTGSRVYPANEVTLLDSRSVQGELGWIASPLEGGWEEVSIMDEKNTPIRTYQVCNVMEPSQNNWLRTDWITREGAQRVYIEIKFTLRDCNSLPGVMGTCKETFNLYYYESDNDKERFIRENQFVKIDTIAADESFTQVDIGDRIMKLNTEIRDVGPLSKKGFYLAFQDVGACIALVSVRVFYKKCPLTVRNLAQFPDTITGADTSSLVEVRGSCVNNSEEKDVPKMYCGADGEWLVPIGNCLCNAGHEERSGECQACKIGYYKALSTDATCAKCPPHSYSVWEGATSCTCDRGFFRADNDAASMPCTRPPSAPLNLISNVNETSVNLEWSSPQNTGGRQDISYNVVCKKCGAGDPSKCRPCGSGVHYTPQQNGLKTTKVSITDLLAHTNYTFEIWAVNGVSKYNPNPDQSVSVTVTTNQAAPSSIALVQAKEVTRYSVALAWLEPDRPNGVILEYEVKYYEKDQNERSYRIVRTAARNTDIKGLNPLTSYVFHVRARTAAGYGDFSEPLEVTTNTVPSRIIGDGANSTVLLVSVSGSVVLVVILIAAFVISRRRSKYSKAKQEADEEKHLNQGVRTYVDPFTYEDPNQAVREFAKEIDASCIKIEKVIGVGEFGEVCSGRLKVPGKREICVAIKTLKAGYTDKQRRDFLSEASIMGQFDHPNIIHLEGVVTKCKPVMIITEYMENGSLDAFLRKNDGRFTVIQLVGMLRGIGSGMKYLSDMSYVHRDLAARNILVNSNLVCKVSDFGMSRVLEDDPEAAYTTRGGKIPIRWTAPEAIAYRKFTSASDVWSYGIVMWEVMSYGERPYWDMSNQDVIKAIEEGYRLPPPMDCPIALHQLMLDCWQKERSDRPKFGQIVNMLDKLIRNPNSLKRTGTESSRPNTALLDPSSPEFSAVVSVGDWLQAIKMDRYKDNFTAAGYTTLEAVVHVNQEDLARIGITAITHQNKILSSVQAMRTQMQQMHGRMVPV
Method in brief: as §1

DYRK1/DYRK1A = DYRK1/DYRK1A (Homo sapiens, UniProt Q13627); settings: duplicate measurements, Km ATP
Method in brief: as §1

ALK6/BMPR1B = ALK6/BMPR1B (Homo sapiens, UniProt O00238); settings: duplicate measurements, Km ATP
Method in brief: as §1

MARK4 = MARK4 (Homo sapiens, UniProt Q96L34); settings: duplicate measurements, Km ATP
Method in brief: as §1

SIK1 = SIK1 (Homo sapiens, UniProt P57059); settings: duplicate measurements, Km ATP
Chain of SIK1 (P57059 whole entry): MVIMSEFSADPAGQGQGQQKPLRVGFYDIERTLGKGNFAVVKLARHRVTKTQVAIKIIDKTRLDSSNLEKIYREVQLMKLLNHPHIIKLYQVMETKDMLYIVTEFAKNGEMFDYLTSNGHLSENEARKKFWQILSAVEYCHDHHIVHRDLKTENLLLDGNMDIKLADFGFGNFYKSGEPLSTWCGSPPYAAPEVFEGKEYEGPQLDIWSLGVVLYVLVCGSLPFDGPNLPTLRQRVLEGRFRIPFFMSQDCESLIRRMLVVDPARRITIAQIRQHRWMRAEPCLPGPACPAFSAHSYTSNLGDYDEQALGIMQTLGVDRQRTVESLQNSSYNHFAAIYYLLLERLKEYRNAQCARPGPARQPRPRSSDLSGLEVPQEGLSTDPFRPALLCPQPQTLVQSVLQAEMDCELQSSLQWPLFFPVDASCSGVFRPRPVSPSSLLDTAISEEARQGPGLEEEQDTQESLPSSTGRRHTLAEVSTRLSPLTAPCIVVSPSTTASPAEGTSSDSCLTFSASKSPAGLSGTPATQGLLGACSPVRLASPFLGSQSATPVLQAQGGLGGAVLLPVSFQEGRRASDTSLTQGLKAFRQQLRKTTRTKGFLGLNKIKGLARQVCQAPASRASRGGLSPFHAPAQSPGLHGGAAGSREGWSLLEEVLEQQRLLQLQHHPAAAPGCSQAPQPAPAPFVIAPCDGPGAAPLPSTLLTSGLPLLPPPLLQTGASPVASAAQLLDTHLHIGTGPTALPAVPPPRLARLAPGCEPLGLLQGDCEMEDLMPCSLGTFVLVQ
Method in brief: as §1

STK22D/TSSK1 = biological target: T1, STK22D/TSSK1 (Homo sapiens, UniProt Q9BXA7); settings: duplicate measurements, Km ATP
T1 construct: gene TSSK1B
Method in brief: as §1

CDK9/cyclin T1 = CDK9/cyclin T1 (Homo sapiens, UniProt P50750); settings: duplicate measurements, Km ATP
Chain of CDK9/cyclin T1 (P50750 whole entry): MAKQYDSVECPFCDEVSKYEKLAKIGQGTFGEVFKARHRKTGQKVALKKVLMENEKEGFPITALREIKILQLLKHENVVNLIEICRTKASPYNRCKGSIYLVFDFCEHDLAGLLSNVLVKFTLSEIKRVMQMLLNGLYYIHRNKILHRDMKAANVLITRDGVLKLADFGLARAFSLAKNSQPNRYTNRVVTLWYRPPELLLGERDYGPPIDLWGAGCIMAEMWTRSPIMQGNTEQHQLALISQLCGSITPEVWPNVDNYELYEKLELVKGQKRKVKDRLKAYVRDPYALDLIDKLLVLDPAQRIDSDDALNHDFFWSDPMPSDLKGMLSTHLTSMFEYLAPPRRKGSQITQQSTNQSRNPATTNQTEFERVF
Chain of CDK9/cyclin T1 (O60563 whole entry partner): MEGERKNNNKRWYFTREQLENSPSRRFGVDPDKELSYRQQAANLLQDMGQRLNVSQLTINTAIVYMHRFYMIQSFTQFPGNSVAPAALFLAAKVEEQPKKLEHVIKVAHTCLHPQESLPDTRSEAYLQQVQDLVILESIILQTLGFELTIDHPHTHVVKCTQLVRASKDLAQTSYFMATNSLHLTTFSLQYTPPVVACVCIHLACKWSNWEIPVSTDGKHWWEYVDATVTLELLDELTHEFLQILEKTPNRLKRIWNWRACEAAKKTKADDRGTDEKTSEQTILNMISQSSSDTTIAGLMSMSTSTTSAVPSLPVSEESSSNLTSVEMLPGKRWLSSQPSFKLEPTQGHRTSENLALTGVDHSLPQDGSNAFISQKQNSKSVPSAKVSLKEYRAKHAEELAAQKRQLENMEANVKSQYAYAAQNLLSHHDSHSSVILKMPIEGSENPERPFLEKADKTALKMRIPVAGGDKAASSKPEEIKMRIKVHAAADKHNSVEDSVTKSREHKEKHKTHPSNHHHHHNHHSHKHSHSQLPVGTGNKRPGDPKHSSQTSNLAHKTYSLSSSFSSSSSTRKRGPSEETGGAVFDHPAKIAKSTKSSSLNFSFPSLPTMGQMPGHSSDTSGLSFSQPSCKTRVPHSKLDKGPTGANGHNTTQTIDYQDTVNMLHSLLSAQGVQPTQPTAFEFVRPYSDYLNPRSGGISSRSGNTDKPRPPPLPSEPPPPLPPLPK
Method in brief: as §1

MAST3 = MAST3 (Homo sapiens, UniProt O60307); settings: duplicate measurements, Km ATP
Method in brief: as §1

PKA = biological target: T2, PKA (Homo sapiens, UniProt P17612); settings: duplicate measurements, Km ATP
T2 construct: gene PRKACA
Method in brief: as §1

CAMK1a = biological target: T3, CAMK1a (Homo sapiens, UniProt Q14012); settings: duplicate measurements, Km ATP
T3 construct: gene CAMK1
Method in brief: as §1

PHKg2 = PHKg2 (Homo sapiens, UniProt P15735); settings: duplicate measurements, Km ATP
Chain of PHKg2 (P15735 whole entry): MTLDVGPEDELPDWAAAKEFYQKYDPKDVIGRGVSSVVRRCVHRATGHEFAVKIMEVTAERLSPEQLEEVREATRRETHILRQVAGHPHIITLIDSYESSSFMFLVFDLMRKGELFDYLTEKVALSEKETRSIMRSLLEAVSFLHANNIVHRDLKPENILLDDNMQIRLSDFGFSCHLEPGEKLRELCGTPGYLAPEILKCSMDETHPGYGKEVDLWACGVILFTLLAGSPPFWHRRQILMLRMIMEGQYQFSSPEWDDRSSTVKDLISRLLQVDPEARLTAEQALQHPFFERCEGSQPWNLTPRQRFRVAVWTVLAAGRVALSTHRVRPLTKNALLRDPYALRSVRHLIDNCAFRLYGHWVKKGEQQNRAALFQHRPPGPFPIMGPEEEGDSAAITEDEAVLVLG
Method in brief: as §1

TYRO3/SKY = TYRO3/SKY (Homo sapiens, UniProt Q06418); settings: duplicate measurements, Km ATP; read-out: % Enzyme Activity (relative to DMSO controls) / TP-0005801 (0.3µM) / Data 1
Method in brief: as §1

PLK2 = PLK2 (Homo sapiens, UniProt Q9NYY3); settings: duplicate measurements, Km ATP
Method in brief: as §1

MLCK/MYLK = MLCK/MYLK (Homo sapiens, UniProt Q15746); settings: duplicate measurements, Km ATP
Method in brief: as §1

GLK/MAP4K3 = GLK/MAP4K3 (Homo sapiens, UniProt Q8IVH8); settings: duplicate measurements, Km ATP
Chain of GLK/MAP4K3 (Q8IVH8 whole entry): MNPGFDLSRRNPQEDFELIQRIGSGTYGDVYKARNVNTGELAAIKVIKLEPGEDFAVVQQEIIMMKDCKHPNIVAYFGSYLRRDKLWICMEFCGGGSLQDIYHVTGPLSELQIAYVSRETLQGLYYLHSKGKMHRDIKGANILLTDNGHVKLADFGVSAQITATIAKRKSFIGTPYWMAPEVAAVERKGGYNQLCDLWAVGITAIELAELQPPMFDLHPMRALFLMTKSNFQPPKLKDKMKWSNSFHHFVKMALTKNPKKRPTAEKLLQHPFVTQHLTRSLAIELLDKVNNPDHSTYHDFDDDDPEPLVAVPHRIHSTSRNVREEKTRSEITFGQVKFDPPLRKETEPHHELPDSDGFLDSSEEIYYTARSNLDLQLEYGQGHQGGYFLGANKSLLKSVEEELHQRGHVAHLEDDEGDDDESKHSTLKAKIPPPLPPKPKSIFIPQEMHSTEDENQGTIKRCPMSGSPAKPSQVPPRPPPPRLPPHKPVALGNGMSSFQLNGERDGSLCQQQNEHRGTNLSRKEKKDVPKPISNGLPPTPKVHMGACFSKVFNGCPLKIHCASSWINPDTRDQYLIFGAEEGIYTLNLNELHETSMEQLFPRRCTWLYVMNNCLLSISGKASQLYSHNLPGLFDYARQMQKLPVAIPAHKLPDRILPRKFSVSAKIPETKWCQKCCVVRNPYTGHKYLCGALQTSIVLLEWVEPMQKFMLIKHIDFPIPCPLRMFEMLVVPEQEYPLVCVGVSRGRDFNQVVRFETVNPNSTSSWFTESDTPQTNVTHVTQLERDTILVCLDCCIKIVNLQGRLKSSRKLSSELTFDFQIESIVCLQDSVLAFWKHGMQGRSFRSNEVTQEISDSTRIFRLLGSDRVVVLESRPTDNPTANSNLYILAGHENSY
Method in brief: as §1

DYRK1B = DYRK1B (Homo sapiens, UniProt Q9Y463); settings: duplicate measurements, Km ATP
Method in brief: as §1

[1] = read-out: % Enzyme Activity (relative to DMSO controls) / TP-0005801 (0.3µM) / Data 1
[2] = read-out: % Enzyme Activity (relative to DMSO controls) / TP-0005801 (0.3µM) / Data 2

- remaining activity at 0.3 µM (TAOK2/TAO1; [1]): 86%
- remaining activity at 0.3 µM (TAOK2/TAO1; [2]): 84.4%
- remaining activity at 0.3 µM (PKD2/PRKD2; [1]): 66.5%
- remaining activity at 0.3 µM (PKD2/PRKD2; [2]): 64.3%
- remaining activity at 0.3 µM (CAMK1d; [1]): 75.7%
- remaining activity at 0.3 µM (CAMK1d; [2]): 73.7%
- remaining activity at 0.3 µM (STK33; [1]): 32.4%
- remaining activity at 0.3 µM (STK33; [2]): 31.5%
- remaining activity at 0.3 µM (EPHA4; [1]): 98.9%
- remaining activity at 0.3 µM (EPHA4; [2]): 98.5%
- remaining activity at 0.3 µM (DYRK1/DYRK1A; [1]): 86.5%
- remaining activity at 0.3 µM (DYRK1/DYRK1A; [2]): 85.9%
- remaining activity at 0.3 µM (ALK6/BMPR1B; [1]): 97.9%
- remaining activity at 0.3 µM (ALK6/BMPR1B; [2]): 97.6%
- remaining activity at 0.3 µM (MARK4; [1]): 89.8%
- remaining activity at 0.3 µM (MARK4; [2]): 88.4%
- remaining activity at 0.3 µM (SIK1; [1]): 94.2%
- remaining activity at 0.3 µM (SIK1; [2]): 92.8%
- remaining activity at 0.3 µM (STK22D/TSSK1; [1]): 10.4%
- remaining activity at 0.3 µM (STK22D/TSSK1; [2]): 8.14%
- remaining activity at 0.3 µM (CDK9/cyclin T1; [1]): 128%
- remaining activity at 0.3 µM (CDK9/cyclin T1; [2]): 115%
- remaining activity at 0.3 µM (MAST3; [1]): 101%
- remaining activity at 0.3 µM (MAST3; [2]): 100%
- remaining activity at 0.3 µM (PKA; [1]): 110%
- remaining activity at 0.3 µM (PKA; [2]): 108%
- remaining activity at 0.3 µM (CAMK1a; [1]): 92.6%
- remaining activity at 0.3 µM (CAMK1a; [2]): 91.5%
- remaining activity at 0.3 µM (PHKg2; [1]): 72.4%
- remaining activity at 0.3 µM (PHKg2; [2]): 71.3%
- remaining activity at 0.3 µM (TYRO3/SKY): 105%
- remaining activity at 0.3 µM (PLK2; [1]): 84%
- remaining activity at 0.3 µM (PLK2; [2]): 83.9%
- remaining activity at 0.3 µM (MLCK/MYLK; [1]): 93.8%
- remaining activity at 0.3 µM (MLCK/MYLK; [2]): 90.8%
- remaining activity at 0.3 µM (GLK/MAP4K3; [1]): 35%
- remaining activity at 0.3 µM (GLK/MAP4K3; [2]): 34.3%
- remaining activity at 0.3 µM (DYRK1B; [1]): 77.1%
- remaining activity at 0.3 µM (DYRK1B; [2]): 75.8%
SMILES: COc1cc(N2CCN(C)CC2)c(C)cc1Nc1ncc(Br)c(Nc2cccnc2N(C)C)n1 [TP-5801]
